Here are results for 2 molecules from EPA's ToxValDB 9.5 (doi:10.2903/j.efsa.2018.5140).

The test system of one data set is Colinus virginianus. The note with it: for LD50: acute, oral, mortality.
Another data set relates to Apis mellifera. The note with it: acute, mortality.
The test system of the next data set is Folsomia candida. The note with it: chronic/long-term; duration: 28 days; reproduction.
The next data set concerns Neomysis kadiakensis. To be noted: chronic/long-term; duration: 28 days; reproduction.
The test system of another data set is Canidae. The note with it: oral, Dog Other, hematological.
In a further data set the test system is Pimephales promelas. To be noted: chronic/long-term; duration: 28 days.
In the next data set the test system is Oncorhynchus mykiss. The note with it: acute; duration: 96 hours; mortality.
The next data set deals with Aphidius rhopalosiphi. Put plainly: LR50; higher = less toxic. The note with it: acute; mortality.

The structures appear in SMILES notation. “And” between values parts separate entries of the source, which are not always exact repeats. Equal entries are not always repeated.

For the molecule `COC(=O)[C@@]12Cc3cc(Cl)ccc3C1=NN(C(=O)Nc1ccc(OC(F)(F)F)cc1)CO2`, the LD50 with Colinus virginianus was 1750 mg/kg; in the data set on Rattus norvegicus (acute, oral, F, mortality) it was 39 mg/kg. Besides, the LC50 in the data set on Rattus norvegicus (acute, M, mortality) was determined as 52 mg/kg.

On to `COC(=O)N(C(=O)N1CO[C@@]2(C(=O)OC)Cc3cc(Cl)ccc3C2=N1)c1ccc(OC(F)(F)F)cc1` [Indoxacarb], for which the LD50 in the data set with Apis mellifera (dermal) stood at 0.0682 µg/piece; in the data set on Apis mellifera (oral, unspecified) it was 0.232 µg/piece; in the data set on Colinus virginianus, 73.5 mg/kg-day; in the data set on Rattus norvegicus (acute, oral, mortality) it was 146 mg/kg-day. In addition, the NOEC in the data set with Folsomia candida was found to be 1 mg/kg; with Neomysis kadiakensis it was 0.0138 mg/L; in the data set on Pimephales promelas, 0.0675 mg/L. Also, the NOAEL with Colinus virginianus (reproduction developmental) is 56.8 mg/kg-day; in the data set with Rattus norvegicus (chronic), 0.6 mg/kg-day; with Rattus norvegicus (chronic, duration: 2 years, hematological), 1.04 mg/kg-day; in the data set on Rattus norvegicus (reproduction developmental, body weight), 0.5 mg/kg-day; in the data set with Rattus norvegicus (subchronic, duration: 90 days, oral, hematological), 0.68 mg/kg-day and 0.99 mg/kg-day; in the data set with Rattus norvegicus (subchronic, oral, hematological) it was 0.76 mg/kg-day. Also, the LOAEL in the data set on Canidae (chronic, duration: 1 years) stood at 1.1 mg/kg-day; in the data set with Canidae (subchronic, duration: 90 days) it was 1 mg/kg-day. In the data set on Oncorhynchus mykiss, the LC50 is over 0.17 µg/mL. The molecule also displayed an LR50 with Aphidius rhopalosiphi of 5.1 g/ha.

As a reminder, the NOAEL is the highest dose or exposure tested at which no adverse effect was seen. Broadly, the LOAEL is the lowest tested level that showed an adverse finding.
